The values below come from ChEMBL document CHEMBL1201862, “PubChem BioAssay data set” (2004).

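Compound exposure: 48 hours, 5 concentrations, 96-well plates. GI50 marks 50% less growth.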 The source made the active and inactive calls. Rule as the data show it: active = GI50 up to about 1.1 µM and inactive = higher.

Test in all cases: inhibition of tumour cell growth, NCI panel, 48 h
In assay [1] the test system is CCRF-CEM.
Assay [2] relates to M14.
The subject of assay [3] is SNB-19.
Assay [4] concerns T47D.
Assay [5] relates to MDA-MB-231.
Assay [6] deals with NCI-H522.
The test system of assay [7] is SK-MEL-5.
Assay [8] deals with UO-31.
Assay [9] deals with SNB-75.
The test system of assay [10] is HOP-92.
Assay [11] deals with MCF7.
The test system of assay [12] is TK-10.
The test system of assay [13] is UACC-257.
The subject of assay [14] is RXF 393.
Assay [15] relates to SK-MEL-28.
The test system of assay [16] is U-251.
In assay [17] the test system is OVCAR-3.
In assay [18] the test system is CAKI-1.
Assay [19] relates to MDA-N.
Assay [20] concerns HL-60.

`O=C1c2ccccc2NC(=S)[C@@H]2CCCN12`: the GI50 in assay [1], in assay [2], in assay [3], in [4], in [5] and in [6] was > 100 µM (inactive) throughout. Moreover, the GI50 in assay [7], in assay [8], in assay [9], in assay [10], in assay [11] and in [12] was > 100 µM (inactive) in each case. Besides, the GI50 in [13], in assay [14], in [15], in assay [16], in [17] and in assay [18] was > 100 µM (inactive) in each case. In assay [19], the GI50 is > 100 µM (inactive).

Take `CC(=O)NCC1OC2COC(c3ccccc3)OC2C(NC(=O)c2ccccc2)C1OC(=O)c1ccccc1` (configuration not stated): the GI50 in assay [1] is > 100 µM (inactive); in assay [2] it was > 100 µM (inactive); in [3], > 100 µM (inactive); in assay [4], 34.5 µM (inactive); in [5] it was > 100 µM (inactive); in [7], > 100 µM (inactive). Also, the GI50 in assay [8] is > 100 µM (inactive); in assay [9], > 100 µM (inactive); in assay [10], > 100 µM (inactive); in [20], 85.5 µM (inactive); in assay [11], > 100 µM (inactive); in assay [12], > 100 µM (inactive). For the same compound, the GI50 in assay [13] was > 100 µM (inactive); in assay [14] it was 35 µM (inactive); in assay [15] it was > 100 µM (inactive); in [16], > 100 µM (inactive); in [17] it was > 100 µM (inactive); in assay [18], > 100 µM (inactive). In addition, the GI50 in assay [19] is > 100 µM (inactive).

As to `CCc1n[nH]c(=O)n1CCO`, the GI50 in [2], in [3], in [4], in assay [5], in assay [7] and in assay [8] was > 100 µM (inactive) in each case. The GI50 in assay [10], in assay [20], in [11], in assay [12], in assay [13] and in assay [15] was > 100 µM (inactive) throughout. Also, the GI50 in assay [16], in assay [17], in assay [18] and in [19] was > 100 µM (inactive) each time.

`COC(=NCCC1=CCCCC1)OC`: the GI50 is 8.71 µM (inactive) in [1]; 21.1 µM (inactive) in assay [2]; > 100 µM (inactive) in assay [3]; 32.9 µM (inactive) in [4]; > 100 µM (inactive) in assay [5]; 32.4 µM (inactive) in [6]. Moreover, the GI50 in assay [7] was 34.4 µM (inactive); in assay [8] it was 53 µM (inactive); in assay [9], 71.6 µM (inactive); in [10], 31.6 µM (inactive); in assay [11], 47.6 µM (inactive); in [12] it was > 100 µM (inactive). Besides, the GI50 in [13] was 39.3 µM (inactive); in assay [14] it was > 100 µM (inactive); in [15] it was 44.7 µM (inactive); in assay [16], 71.3 µM (inactive); in [17] it was > 100 µM (inactive); in assay [18], > 100 µM (inactive). Moreover, the GI50 in assay [19] is 95.3 µM (inactive).

Regarding `Cc1nc(-c2cc3cc([N+](=O)[O-])ccc3oc2=O)cs1`, the GI50 was 32.9 µM (inactive) in assay [1]; > 100 µM (inactive) in assay [2]; > 100 µM (inactive) in assay [3]; > 100 µM (inactive) in assay [4]; 80.7 µM (inactive) in assay [5]; > 100 µM (inactive) in assay [7]. Besides, the GI50 is > 100 µM (inactive) in assay [8]; 1.25 µM (inactive) in [9]; 67.3 µM (inactive) in [10]; 31.8 µM (inactive) in [20]; > 100 µM (inactive) in assay [11]; > 100 µM (inactive) in [12]. For the same compound, the GI50 in [13], in [14], in assay [15], in assay [16], in [18] and in assay [19] was > 100 µM (inactive) throughout.

`N#CCCN(CCC#N)c1ccc(C(=N/c2ccc(F)cc2)/N=N/c2ccc(Cl)cc2)cc1`: the GI50 in assay [1], in assay [2], in assay [3], in assay [4], in assay [5] and in assay [6] was > 100 µM (inactive) throughout. The GI50 in [7], in assay [8], in assay [9], in [10], in assay [11] and in assay [12] was > 100 µM (inactive) in each case. In addition, the GI50 in assay [13], in assay [14], in assay [15], in assay [16], in [17] and in assay [18] was > 100 µM (inactive) throughout. Further, in assay [19], the GI50 is > 100 µM (inactive).

In the case of `COc1ccc(-n2cnc3c(NC(CCSC)C(=O)O)ncnc32)cc1` (configuration not stated), the GI50 in assay [1], in assay [2], in [3], in [4], in [5] and in [6] was > 100 µM (inactive) each time. The GI50 in [7] is > 100 µM (inactive); in assay [8] it was > 100 µM (inactive); in assay [9], > 100 µM (inactive); in [10], 74.1 µM (inactive); in assay [11], > 100 µM (inactive); in assay [12] it was > 100 µM (inactive). The GI50 in assay [13], in assay [15], in assay [16], in assay [17], in assay [18] and in assay [19] was > 100 µM (inactive) in each case.

Take `CCc1n[nH]c(=O)n1O`: the GI50 in assay [1], in assay [3], in [4], in assay [5], in assay [6] and in assay [7] was > 100 µM (inactive) throughout. The GI50 in assay [8] was > 100 µM (inactive); in assay [10], 0.0738 µM (active); in assay [20], > 100 µM (inactive); in [11], > 100 µM (inactive); in [12], > 100 µM (inactive); in assay [13] it was > 100 µM (inactive). The GI50 in assay [15], in assay [16], in [17], in assay [18] and in [19] was > 100 µM (inactive) each time.

`Nc1ccc(CCSSCCc2ccc(N)cc2)cc1`: the GI50 in [1] was 1.38 µM (inactive); in assay [2], 30 µM (inactive); in [3] it was 50.7 µM (inactive); in assay [4], 35.6 µM (inactive); in [5], 39.3 µM (inactive); in assay [6] it was 12.9 µM (inactive). In addition, the GI50 in assay [7] was 19.8 µM (inactive); in assay [8] it was 22.7 µM (inactive); in assay [9] it was 30.9 µM (inactive); in [10], 34.5 µM (inactive); in assay [11], 29.7 µM (inactive); in [12] it was 36.1 µM (inactive). In addition, the GI50 was 20 µM (inactive) in [13]; 21.8 µM (inactive) in [14]; 28.3 µM (inactive) in assay [15]; 19.6 µM (inactive) in assay [16]; 31.6 µM (inactive) in assay [17]; 26.4 µM (inactive) in assay [18]. In addition, the GI50 in assay [19] was 27.7 µM (inactive).

With `c1ccc(Cn2c(-c3ccc(-c4ccccc4)cc3)cc3ccccc32)cc1`, the GI50 in [1] was > 100 µM (inactive); in assay [2] it was > 100 µM (inactive); in assay [3], > 100 µM (inactive); in [4], > 100 µM (inactive); in assay [5] it was > 100 µM (inactive); in assay [6], 28.2 µM (inactive). Moreover, the GI50 in [7] was > 100 µM (inactive); in assay [8] it was > 100 µM (inactive); in [9], 58.1 µM (inactive); in assay [10], > 100 µM (inactive); in assay [20] it was > 100 µM (inactive); in assay [11], > 100 µM (inactive). Also, the GI50 in [12], in [13], in assay [15], in assay [16], in assay [17] and in assay [18] was > 100 µM (inactive) each time. For the same compound, in assay [19], the GI50 was > 100 µM (inactive).

For the compound `N#Cc1ccc(Nc2nc3[nH]cnc3c(=O)[nH]2)cc1`, the GI50 in [1], in [2], in [3], in [4], in [5] and in assay [6] was > 100 µM (inactive) throughout. Besides, the GI50 in assay [7], in assay [8], in assay [9], in [10], in assay [20] and in assay [11] was > 100 µM (inactive) throughout. The GI50 in assay [12], in assay [13], in [15], in [16], in assay [17] and in [18] was > 100 µM (inactive) throughout. Besides, the GI50 in assay [19] was > 100 µM (inactive).
